Measurements reported in EP0908457B1, “3-(1,2-benzisothiazol- and isoxazol-5-Y1)-2,4(1H,3H)-pyrimidinedione or thione and 3-(1,2-benzisothiazol- and isoxazol-5-y1)-4(3H)-pyrimidinone or thione herbicidal agents” (BASF AKTIENGESELLSCHAFT, priority 1997, dated 1999).

Experiments:
[1] = test system: Echinochloa oryzoides (Ard.) Fritsch.; assay: Preemergence weed control under flooded paddy conditions, ECHORC (Watergrass (Calif.)); format: in vivo; conditions: preemergence, flooded paddy; on herbicidal effect rating, ECHORC: meaning of each grade not given here
[2] = test system: Monochoria vaginalis, Presl.; assay: Preemergence weed control under flooded paddy conditions, MOOVA (Monochoria); format: in vivo; conditions: preemergence, flooded paddy; on herbicidal effect rating, MOOVA: meaning of each grade not given here
[3] = test system: Cyperus serotinus, Rottb.; assay: Preemergence weed control under flooded paddy conditions, CYPSE (Flatsedge); format: in vivo; conditions: preemergence; on herbicidal effect rating, CYPSE: meaning of each grade not given here
[4] = test system: Cyperus iria; assay: Preemergence weed control under flooded paddy conditions, CYPIR (Rice Flatsedge); format: in vivo; conditions: preemergence, flooded paddy; on herbicidal effect rating, CYPIR: meaning of each grade not given here
[5] = test system: Sagittaria pygmaea, L.; assay: Preemergence weed control under flooded paddy conditions, SAGPY (Arrowhead (Pygmaea)); format: in vivo; conditions: preemergence, flooded paddy; on herbicidal effect rating, SAGPY: meaning of each grade not given here
[6] = test system: Oryza sativa, (L.) Tebonnet; assay: Rice tolerance to post-transplant applications under flooded paddy conditions (Example 187), ORYSAT (Rice, Tebonnet); on herbicidal effect rating ORYSAT: meaning of each grade not given here
[7] = Rate 0.0320 kg/ha, rated three to four weeks after treatment
[8] = Rate 0.0620 kg/ha, rated three to four weeks after treatment
[9] = Rate 0.1250 kg/ha, rated three to four weeks after treatment
[10] = Rate 0.2500 kg/ha, rated three to four weeks after treatment
[11] = 0.0320 kg/ha, rated three to four weeks after treatment
[12] = 0.0620 kg/ha, rated three to four weeks after treatment
[13] = 0.1250 kg/ha, rated three to four weeks after treatment
[14] = 0.2500 kg/ha, rated three to four weeks after treatment
[15] = Rate 0.5000 kg/ha, rated three to four weeks after treatment
[16] = Rate 0.0320 kg/ha, rated 3-4 weeks after treatment
[17] = Rate 0.0620 kg/ha, rated 3-4 weeks after treatment
[18] = Rate 0.1250 kg/ha, rated 3-4 weeks after treatment
[19] = Rate 0.2500 kg/ha, rated 3-4 weeks after treatment
[20] = Rate 0.5000 kg/ha, rated 3-4 weeks after treatment
[21] = 0.0313 kg/ha, rated three to four weeks after treatment
[22] = 0.0625 kg/ha, rated three to four weeks after treatment

Cn1c(C(F)(F)F)cc(=O)n(-c2ccc3snc(C(C#N)=Cc4ccco4)c3c2)c1=O [Example 594, 1,2-Benzisothiazole-3-acetonitrile, 5-[3,6-dihydro-3-methyl-2,6-dioxo-4-(trifluoromethyl)-1(2H)-pyrimidinyl]-alpha-furfurylidene-]
5.0: herbicidal effect rating, ECHORC [1, 8] | herbicidal effect rating, CYPIR [4, 8] | herbicidal effect rating, CYPIR [4, 9] | herbicidal effect rating, SAGPY [5, 9]
7.0: herbicidal effect rating, ECHORC [1, 10] | herbicidal effect rating, MOOVA [2, 8]
0.0: herbicidal effect rating, CYPSE [3, 7]
4.0: herbicidal effect rating, SAGPY [5, 8]
3.0: herbicidal effect rating, ECHORC [1, 7] | herbicidal effect rating, CYPIR [4, 7] | herbicidal effect rating ORYSAT [6, 10]
9.0: herbicidal effect rating, MOOVA [2, 9] | herbicidal effect rating, MOOVA [2, 10] | herbicidal effect rating, CYPIR [4, 10]
2.0: herbicidal effect rating, SAGPY [5, 7] | herbicidal effect rating ORYSAT [6, 8] | herbicidal effect rating ORYSAT [6, 9]
6.0: herbicidal effect rating, ECHORC [1, 9] | herbicidal effect rating, MOOVA [2, 7]
1.0: herbicidal effect rating ORYSAT [6, 7]

Cc1ccc(OC(C)(C)C(=O)O)c(-c2nsc3ccc(-n4c(=O)cc(C(F)(F)F)n(C)c4=O)cc23)c1 [Example 515, Propionic acid, 2-{{2-{5-[3,6-dihydro-3-methyl-2,6-dioxo-4-(trifluoromethyl)-1(2H)-pyrimidinyl]-1,2-benzisothiazol-3-yl}-p-tolyl}oxy}-2-methyl-]
6.0: ECHORC herbicidal rating [1, 12] | ORYSAT herbicidal rating (rice tolerance) [6, 14]
7.0: CYPIR herbicidal rating [4, 14]
2.0: ECHORC herbicidal rating [1, 11] | CYPIR herbicidal rating [4, 12] | ORYSAT herbicidal rating (rice tolerance) [6, 12]
9.0: ECHORC herbicidal rating [1, 14] | MOOVA herbicidal rating [2, 11] | MOOVA herbicidal rating [2, 12] | MOOVA herbicidal rating [2, 13] | MOOVA herbicidal rating [2, 14]
0.0: CYPSE herbicidal rating [3, 11] | CYPSE herbicidal rating [3, 12] | CYPSE herbicidal rating [3, 13] | CYPSE herbicidal rating [3, 14] | CYPIR herbicidal rating [4, 11] | SAGPY herbicidal rating [5, 11] | SAGPY herbicidal rating [5, 12] | SAGPY herbicidal rating [5, 13] | SAGPY herbicidal rating [5, 14] | ORYSAT herbicidal rating (rice tolerance) [6, 11]
8.0: ECHORC herbicidal rating [1, 13]
4.0: CYPIR herbicidal rating [4, 13] | ORYSAT herbicidal rating (rice tolerance) [6, 13]

Cn1c(C(F)(F)F)cc(=O)n(-c2ccc3snc(/C=N/O)c3c2)c1=O [Example 278, 1,2-Benzisothiazole-3-carboxaldehyde, 5-[3,6-dihydro-3-methyl-2,6-dioxo-4-(trifluoromethyl)-1(2H)-pyrimidinyl]-, 3-oxime, (E)-]
4.0: CYPSE herbicidal effect rating [3, 10] | ORYSAT herbicidal effect rating [6, 9]
7.4: ECHORC herbicidal effect rating [1, 9]
9.0: ECHORC herbicidal effect rating [1, 15] | MOOVA herbicidal effect rating [2, 9] | MOOVA herbicidal effect rating [2, 10] | MOOVA herbicidal effect rating [2, 15] | CYPSE herbicidal effect rating [3, 15] | CYPIR herbicidal effect rating [4, 10] | CYPIR herbicidal effect rating [4, 15] | SAGPY herbicidal effect rating [5, 15]
6.0: MOOVA herbicidal effect rating [2, 7]
6.1: ECHORC herbicidal effect rating [1, 8]
8.0: ECHORC herbicidal effect rating [1, 10] | MOOVA herbicidal effect rating [2, 8] | ORYSAT herbicidal effect rating [6, 15]
3.0: ORYSAT herbicidal effect rating [6, 8]
0.0: ECHORC herbicidal effect rating [1, 7] | CYPSE herbicidal effect rating [3, 7] | CYPSE herbicidal effect rating [3, 8] | CYPIR herbicidal effect rating [4, 7] | SAGPY herbicidal effect rating [5, 7] | SAGPY herbicidal effect rating [5, 8] | SAGPY herbicidal effect rating [5, 9]
2.0: CYPSE herbicidal effect rating [3, 9] | CYPIR herbicidal effect rating [4, 8] | SAGPY herbicidal effect rating [5, 10] | ORYSAT herbicidal effect rating [6, 7]
7.0: CYPIR herbicidal effect rating [4, 9] | ORYSAT herbicidal effect rating [6, 10]

Cc1ccc(C(=O)C(C)Oc2ccccc2-c2nsc3ccc(-n4c(=O)cc(C(F)(F)F)n(C)c4=O)cc23)cc1C (centres unmarked) [Example 550, 2,4(1H,3H)-Pyrimidinedione, 3-{-3-{o-[1-(3,4-dimethylbenzoyl)ethoxy]phenyl}-1,2-benzisothiazol-5-yl]-1-methyl-6-(trifluoromethyl)-]
5.9: herbicidal effect rating, ECHORC [1, 17] | herbicidal effect rating, ECHORC [1, 18]
4.7: herbicidal effect rating, ECHORC [1, 16]
8.0: herbicidal effect rating, CYPIR [4, 17] | herbicidal effect rating, CYPIR [4, 18]
7.0: herbicidal effect rating, CYPIR [4, 19]
9.0: herbicidal effect rating, ECHORC [1, 19] | herbicidal effect rating, ECHORC [1, 20] | herbicidal effect rating, MOOVA [2, 16] | herbicidal effect rating, MOOVA [2, 17] | herbicidal effect rating, MOOVA [2, 18] | herbicidal effect rating, MOOVA [2, 19] | herbicidal effect rating, MOOVA [2, 20] | herbicidal effect rating, CYPSE [3, 20]
0.0: herbicidal effect rating, CYPSE [3, 16] | herbicidal effect rating, CYPSE [3, 17] | herbicidal effect rating, CYPSE [3, 18] | herbicidal effect rating, CYPSE [3, 19] | herbicidal effect rating, SAGPY [5, 16] | herbicidal effect rating, SAGPY [5, 17] | herbicidal effect rating, SAGPY [5, 18] | herbicidal effect rating, SAGPY [5, 19] | herbicidal effect rating, SAGPY [5, 20] | herbicidal effect rating ORYSAT [6, 16] | herbicidal effect rating ORYSAT [6, 17] | herbicidal effect rating ORYSAT [6, 18] | herbicidal effect rating ORYSAT [6, 19] | herbicidal effect rating ORYSAT [6, 20]
2.0: herbicidal effect rating, CYPIR [4, 16]
5.0: herbicidal effect rating, CYPIR [4, 20]

COC(=O)COc1c(C)cc(C)cc1-c1nsc2ccc(-n3c(=O)cc(C(F)(F)F)n(C)c3=O)cc12 [Example 26, Methyl {{6-{5-[3,6-dihydro-3-methyl-2,6-dioxo-4-(trifluoromethyl)-1(2H)-pyrimidinyl]-1,2-benzisothiazol-3-yl}-2,4-xylyl}oxy}acetate]
4.0: herbicidal effect rating, CYPSE [3, 22] | herbicidal effect rating, ORYSAT (rice tolerance) [6, 22]
7.0: herbicidal effect rating, ECHORC [1, 21]
8.0: herbicidal effect rating, CYPIR [4, 22]
3.0: herbicidal effect rating, ORYSAT (rice tolerance) [6, 21]
2.0: herbicidal effect rating, CYPSE [3, 13] | herbicidal effect rating, SAGPY [5, 13]
9.0: herbicidal effect rating, ECHORC [1, 22] | herbicidal effect rating, ECHORC [1, 13] | herbicidal effect rating, ECHORC [1, 14] | herbicidal effect rating, MOOVA [2, 21] | herbicidal effect rating, MOOVA [2, 22] | herbicidal effect rating, MOOVA [2, 13] | herbicidal effect rating, MOOVA [2, 14] | herbicidal effect rating, CYPSE [3, 14] | herbicidal effect rating, CYPIR [4, 13] | herbicidal effect rating, CYPIR [4, 14] | herbicidal effect rating, SAGPY [5, 14] | herbicidal effect rating, ORYSAT (rice tolerance) [6, 14]
0.0: herbicidal effect rating, CYPSE [3, 21] | herbicidal effect rating, SAGPY [5, 21] | herbicidal effect rating, SAGPY [5, 22]
6.0: herbicidal effect rating, CYPIR [4, 21] | herbicidal effect rating, ORYSAT (rice tolerance) [6, 13]
